From patent publication US7427488B2, “Purified and isolated platelet calcium channel nucleic acids and polypeptides and therapeutic and screening methods using same” (The University of North Carolina at Chapel Hill, priority 2000, dated 2008)

Legend:
Assay type in all cases: cell-based, human
[1] = test system: platelet VDCC (thrombin-activated platelets); experiment: Flow cytometric analysis of [Ca2+]i in thrombin-activated platelets; conditions: for effect on [Ca2+]i (in words): thrombin-activated platelets
Experimental: The conduction of calcium by the VDCC is measured in vitro by measuring changes in cytoplasmic free (ionized) calcium concentrations. Cytoplasmic calcium concentrations are measured by performing flow cytometric analysis with the calcium indicators fluo-3 and fura red as detailed by Novak & Rabinovitch, 1994. Briefly, platelets in whole blood, platelet rich plasma or biological buffers are incubated with esters of fluo-3 and fura red, and then aspirated into the flow cytometric instrument for measurement of calcium-dependent fluorescent changes. Cytoplasmic calcium concentrations are calculated from the ratio or fluo-3 and fura red relative fluorescence intensities. Experiments are performed with increasing doses of VDCC inhibitors with platelets that are in the resting state and subjected to different concentrations of activation agonists and VDCC antagonists and agonists.
(§1) Human blood was collected in acid-citrate-dextrose (ACD, 85 mM trisodium citrate, 70 mM citric acid, 111 mM dextrose). Platelet rich plasma (PRP) was prepared by centrifugation of anticoagulated blood at 25° C. for 8 minutes at 200×g. Platelets were separated from plasma via gel filtration by applying the PRP to a 2.7×10 cm SEPHAROSE™ CL4B column (Amersham Biosciences Corp., Piscataway, N.J., United States of America) equilibrated with modified Tyrode's buffer (145 mM NaCl, 4 mM KCl, 1 mM MgSO4, 6 mM glucose, 10 mM Na-HEPES). Gel filtered platelets were collected and adjusted to a concentration of about 200×10^6 platelets/ml.
PRP (prepared as above) was incubated with 5 μM Fura 2-AM and 5 μM Fluo 3-AM for 20 minutes at 37° C. […] Thrombin was then added to a final concentration of 0.0167, 0.05, 0.167 or 0.5 units/ml and mean cell fluorescence (MCF) of Fura 2 and Fluo 3 was measured at 1 minute on a FACSCAN™ (BD Biosciences, San Jose, Calif., United States of America) flow cytometer as per Novak & Rabinovitch, 1994. The ratio of fluo 3 to fura 2 MCF was calculated and compared to controls for each experimental condition.

[2] = test system: gel-filtered platelets; experiment: Platelet aggregation (Chrono-log aggregometer); conditions: 50 nM nitrendipine or 5 μM Bay K(+); various concentrations of thrombin
Experimental: as §1
Gel-filtered platelets at about 200×10^6/ml were incubated for 2 hours with 1:200 MA3-920, 50 nM nitrendipine, 5 μM Bay K(−), or 5 μM Bay K(+). […] Results were analyzed with the AGGROLINK® software (Chrono-log Corp.).

[3] = test system: platelet surface activation markers; experiment: Cell surface markers of platelet activation, overall statement; conditions: Annexin V, PAC1, CD62
Experimental: as §1
(§2) Platelets were stained for cell surface activation markers according to “Flow Cytometric Analysis of Platelets”. Monoclonal Antibodies Source Book. Vol. Section 2.19 (Becton, Dickinson And Co., Franklin Lakes, N.J., United States of America). Briefly, after treatment with agonists or antagonists as above, cells were activated with 0.167 units/ml thrombin (concentration chosen based on [Ca^2+ ]i studies) for 1 minute in the presence of 1 μM CaCl2, and then stained with the combination of CD61 PerCP and Annexin V FITC, or PAC-1 FITC, CD61 PerCP, and CD62 PE for 15 minutes at room temperature in the dark. […] Cells were analyzed on a FACSCAN™ flow cytometer. Mean cell fluorescence (MCF) was compared to control platelets (thrombin only) for each experimental condition. […]

[4] = test system: Annexin-V (phosphatidylserine) on platelet surface; experiment: Cell surface markers of platelet activation by flow cytometry: Annexin V binding; conditions: thrombin-activated platelets
Experimental: as §1, §2

[5] = test system: CD62 (PADGEM; P-selectin) on platelet surface; experiment: Cell surface markers of platelet activation by flow cytometry: CD62; conditions: thrombin-activated platelets
Experimental: as §1, §2

[6] = test system: PAC1 (activated GPIIb/IIIa) on platelet surface; experiment: Cell surface markers of platelet activation by flow cytometry: PAC1; conditions: thrombin-activated platelets
Experimental: as §1, §2

Row | Compound | effect on [Ca2+]i (in words) [1] | effect on (the rate of) platelet aggregation (in words) [2] | effect on platelet surface activation markers (in words) [3] | [Ca2+]i ([1]; 5 μM, at one minute, thrombin 0.0167 to 0.5 units/ml (FIG. 8)) | increase in annexin V binding [4] | decrease in CD62 [5] | decrease in PAC1 [6] | reduction (decrease) in annexin V binding / PS exposure [4]
1 | COC(=O)C1=C(C)NC(C)=C([N+](=O)[O-])[C@@H]1c1ccccc1C(F)(F)F [Bay K (+)] | no significant effect | no significant effect | no significant effect | – | – | – | – | –
2 | COC(=O)C1=C(C)NC(C)=C([N+](=O)[O-])[C@H]1c1ccccc1C(F)(F)F [Bay K (−)] | trend towards increased | – | – | increase | 56% | 4% | 9% | –
3 | CCOC(=O)C1=C(C)NC(C)=C(C(=O)OC)C1c1cccc([N+](=O)[O-])c1 (stereo not shown) [Nitrendipine, nitrendipine] | – | no effect | – | – | – | – | – | 22%
